Where two headings read alike, the source gives them in different places.
Legend:
BSEP [1] = molecular target: T1, BSEP (Mus musculus, UniProt Q9QY30); experiment: Inhibition of BSEP activity (transport of taurocholate) in mouse hepatocytes
T1 sequence (Q9QY30 1-1321): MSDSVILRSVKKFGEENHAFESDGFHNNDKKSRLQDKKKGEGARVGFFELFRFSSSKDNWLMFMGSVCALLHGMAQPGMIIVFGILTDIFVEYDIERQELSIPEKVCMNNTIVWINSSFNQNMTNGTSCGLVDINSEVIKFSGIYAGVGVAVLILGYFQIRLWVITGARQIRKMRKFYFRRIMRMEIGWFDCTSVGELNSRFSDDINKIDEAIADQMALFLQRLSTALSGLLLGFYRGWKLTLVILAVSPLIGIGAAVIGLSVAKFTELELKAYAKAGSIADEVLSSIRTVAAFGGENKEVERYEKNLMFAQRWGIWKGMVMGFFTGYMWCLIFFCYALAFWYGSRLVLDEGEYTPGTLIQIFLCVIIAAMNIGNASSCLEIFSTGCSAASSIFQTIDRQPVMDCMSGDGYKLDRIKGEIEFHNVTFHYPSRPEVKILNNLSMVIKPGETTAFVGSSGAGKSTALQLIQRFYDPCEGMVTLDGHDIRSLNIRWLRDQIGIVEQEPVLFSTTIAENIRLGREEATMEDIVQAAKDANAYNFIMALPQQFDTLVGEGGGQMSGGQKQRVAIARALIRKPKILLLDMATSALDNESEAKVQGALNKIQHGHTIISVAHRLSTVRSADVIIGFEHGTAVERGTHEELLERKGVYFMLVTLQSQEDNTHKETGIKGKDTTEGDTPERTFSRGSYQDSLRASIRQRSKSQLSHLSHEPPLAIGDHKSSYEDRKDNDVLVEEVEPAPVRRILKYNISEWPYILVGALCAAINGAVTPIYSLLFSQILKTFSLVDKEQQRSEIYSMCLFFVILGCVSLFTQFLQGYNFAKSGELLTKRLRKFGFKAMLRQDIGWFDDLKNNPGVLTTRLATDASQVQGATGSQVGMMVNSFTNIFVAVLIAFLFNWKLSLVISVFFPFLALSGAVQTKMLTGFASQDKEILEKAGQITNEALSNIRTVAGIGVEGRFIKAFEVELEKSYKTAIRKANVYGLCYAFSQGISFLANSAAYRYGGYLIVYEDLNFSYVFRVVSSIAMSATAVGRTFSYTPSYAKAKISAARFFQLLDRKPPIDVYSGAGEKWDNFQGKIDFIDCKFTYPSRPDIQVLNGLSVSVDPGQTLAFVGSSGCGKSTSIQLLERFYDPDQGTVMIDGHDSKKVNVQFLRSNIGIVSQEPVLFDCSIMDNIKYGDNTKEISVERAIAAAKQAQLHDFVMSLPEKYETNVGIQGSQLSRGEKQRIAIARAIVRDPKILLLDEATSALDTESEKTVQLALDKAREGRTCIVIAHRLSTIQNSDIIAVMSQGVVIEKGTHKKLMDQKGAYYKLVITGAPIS

BSEP [2] = molecular target: T2, BSEP (Macaca fascicularis, UniProt D2CFL3); experiment: in vitro; settings: monkey, hepatocytes in suspension, probe taurocholate
T2 sequence (D2CFL3 1-1323): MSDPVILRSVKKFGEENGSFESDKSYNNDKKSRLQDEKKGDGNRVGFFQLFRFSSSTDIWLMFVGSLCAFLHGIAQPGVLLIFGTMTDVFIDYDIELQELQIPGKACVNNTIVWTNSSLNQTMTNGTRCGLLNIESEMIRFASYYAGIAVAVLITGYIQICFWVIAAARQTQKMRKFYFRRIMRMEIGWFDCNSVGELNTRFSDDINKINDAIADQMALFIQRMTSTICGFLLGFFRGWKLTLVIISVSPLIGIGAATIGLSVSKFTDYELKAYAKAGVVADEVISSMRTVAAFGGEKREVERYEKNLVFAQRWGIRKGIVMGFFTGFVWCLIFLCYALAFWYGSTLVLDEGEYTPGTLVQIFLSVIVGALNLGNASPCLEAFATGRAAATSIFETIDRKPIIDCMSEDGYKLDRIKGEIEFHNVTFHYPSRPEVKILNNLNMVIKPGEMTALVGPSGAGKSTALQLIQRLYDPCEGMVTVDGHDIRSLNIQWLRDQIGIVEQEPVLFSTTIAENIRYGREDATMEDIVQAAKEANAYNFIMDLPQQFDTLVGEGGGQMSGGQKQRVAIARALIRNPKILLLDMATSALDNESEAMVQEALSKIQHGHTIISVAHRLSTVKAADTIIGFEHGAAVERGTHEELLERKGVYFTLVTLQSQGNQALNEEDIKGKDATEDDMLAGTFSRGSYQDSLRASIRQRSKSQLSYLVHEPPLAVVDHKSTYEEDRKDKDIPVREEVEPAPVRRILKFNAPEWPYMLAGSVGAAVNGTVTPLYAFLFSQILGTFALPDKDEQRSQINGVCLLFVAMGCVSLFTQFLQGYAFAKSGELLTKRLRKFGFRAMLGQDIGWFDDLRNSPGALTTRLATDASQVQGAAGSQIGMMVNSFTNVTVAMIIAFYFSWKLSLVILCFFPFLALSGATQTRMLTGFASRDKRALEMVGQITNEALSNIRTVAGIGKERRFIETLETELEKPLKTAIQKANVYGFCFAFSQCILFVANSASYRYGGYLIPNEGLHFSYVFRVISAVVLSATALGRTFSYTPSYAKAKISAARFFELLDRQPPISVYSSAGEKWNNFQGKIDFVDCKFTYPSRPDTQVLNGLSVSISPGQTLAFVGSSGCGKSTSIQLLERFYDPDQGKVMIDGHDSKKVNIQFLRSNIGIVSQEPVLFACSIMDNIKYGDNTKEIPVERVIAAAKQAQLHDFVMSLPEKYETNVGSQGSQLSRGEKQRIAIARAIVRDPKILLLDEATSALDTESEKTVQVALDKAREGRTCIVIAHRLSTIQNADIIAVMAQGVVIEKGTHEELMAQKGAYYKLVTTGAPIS

BSEP [3] = molecular target: T1, BSEP; experiment: IC50 for inhibition of BSEP activity in mouse hepatocytes; assay type: cell-based
Description: (§1) Kinetic parameters were calculated using standard Michaelis-Menten kinetics. IC50 values were determined using Prism software (La Jolla, Calif.) or median-effect equation. [Chou et al., Theoretical basis, experimental design, and computerized simulation of synergism and antagonism in Drug Combination Studies. Pharmacological Reviews 58, 621, 2006]

BSEP [4] = molecular target: T2, BSEP; experiment: IC50 for inhibition of BSEP activity in monkey hepatocytes; assay type: cell-based; settings: hepatocytes in suspension
Description: as §1

BSEP [5] = molecular target: T3, BSEP (Canis lupus familiaris, UniProt B8K1W2); experiment: IC50 for inhibition of BSEP activity in dog hepatocytes; assay type: cell-based
T3 sequence (B8K1W2 1-1325): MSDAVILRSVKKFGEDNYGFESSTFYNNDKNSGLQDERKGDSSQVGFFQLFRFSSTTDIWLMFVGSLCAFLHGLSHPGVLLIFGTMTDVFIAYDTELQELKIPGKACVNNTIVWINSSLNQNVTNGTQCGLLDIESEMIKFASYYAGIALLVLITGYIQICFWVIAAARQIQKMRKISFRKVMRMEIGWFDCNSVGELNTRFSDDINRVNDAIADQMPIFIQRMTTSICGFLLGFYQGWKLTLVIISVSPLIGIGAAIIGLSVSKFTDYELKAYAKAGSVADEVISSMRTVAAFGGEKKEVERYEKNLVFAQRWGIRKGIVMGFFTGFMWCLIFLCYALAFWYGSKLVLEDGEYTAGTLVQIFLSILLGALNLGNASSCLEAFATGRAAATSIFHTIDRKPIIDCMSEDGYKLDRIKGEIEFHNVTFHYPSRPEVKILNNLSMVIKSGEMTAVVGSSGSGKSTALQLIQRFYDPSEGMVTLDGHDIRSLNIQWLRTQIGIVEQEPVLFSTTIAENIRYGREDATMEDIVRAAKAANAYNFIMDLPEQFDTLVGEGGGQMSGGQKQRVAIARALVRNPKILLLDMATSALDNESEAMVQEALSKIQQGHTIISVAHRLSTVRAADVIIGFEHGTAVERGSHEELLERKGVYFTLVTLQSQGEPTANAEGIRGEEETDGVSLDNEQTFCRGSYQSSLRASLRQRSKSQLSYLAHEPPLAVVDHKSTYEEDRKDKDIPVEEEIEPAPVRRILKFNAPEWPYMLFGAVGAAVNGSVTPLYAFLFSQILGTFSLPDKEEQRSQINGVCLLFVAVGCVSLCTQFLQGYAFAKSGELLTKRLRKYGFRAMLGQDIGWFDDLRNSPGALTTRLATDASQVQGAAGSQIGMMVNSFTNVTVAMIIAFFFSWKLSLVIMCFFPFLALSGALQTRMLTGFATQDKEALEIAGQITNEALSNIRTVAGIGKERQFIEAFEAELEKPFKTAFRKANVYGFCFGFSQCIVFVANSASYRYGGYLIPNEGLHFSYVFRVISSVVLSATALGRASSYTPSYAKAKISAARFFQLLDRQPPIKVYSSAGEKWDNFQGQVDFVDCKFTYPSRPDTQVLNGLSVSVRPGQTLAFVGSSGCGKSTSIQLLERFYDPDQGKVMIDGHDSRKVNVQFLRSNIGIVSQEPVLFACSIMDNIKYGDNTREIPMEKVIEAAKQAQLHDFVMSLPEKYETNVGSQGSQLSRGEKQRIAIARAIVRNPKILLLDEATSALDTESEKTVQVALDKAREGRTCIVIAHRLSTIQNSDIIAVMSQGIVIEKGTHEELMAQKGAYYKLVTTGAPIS
Description: as §1

[6] = hepatocytes in suspension, probe taurocholate

SMILES	inhibition at 1 h, 1 μM (BSEP [1]; [6])	inhibition at 1 h, 10 μM (BSEP [1]; [6])	inhibition at 1 h, 1 μM (BSEP [2])	inhibition at 1 h, 10 μM (BSEP [2])	IC50 (BSEP [3])	IC50 at 1 h (BSEP [4])	IC50 (BSEP [5])	inhibition at 1 h, 1 μM (BSEP [1])	inhibition at 1 h, 10 μM (BSEP [1])
CC(C)NCC(O)COc1cccc2ccccc12 (centres unmarked) [Propranolol, propranolol]	< 50%	< 50%	< 50%	< 50%					
CC[C@]1(O)C[C@@H]2CN(CCc3c([nH]c4ccccc34)[C@@](C(=O)OC)(c3cc4c(cc3OC)N(C)[C@H]3[C@@](O)(C(=O)OC)[C@H](OC(C)=O)[C@]5(CC)C=CCN6CC[C@]43[C@@H]65)C2)C1 [Vinblastine, vinblastine]	< 50%	< 50%	< 50%	< 50%					
Cc1c(C)c2c(c(C)c1O)CCC(C)(COc1ccc(CC3SC(=O)NC3=O)cc1)O2 (centres unmarked) [Troglitazone, troglitazone]	< 50%	< 50%	< 50%	> 50%	> 10 µM	1 to 10 µM	1 to 10 µM		
CO[C@H]1/C=C/O[C@@]2(C)Oc3c(C)c(O)c4c(O)c(c(/C=N/N5CCN(C)CC5)c(O)c4c3C2=O)NC(=O)/C(C)=C\C=C\[C@H](C)[C@H](O)[C@@H](C)[C@@H](O)[C@@H](C)[C@H](OC(C)=O)[C@@H]1C [Rifampicin]					> 10 µM	< 1 µM	> 10 µM		
C[C@@H](Oc1cc(-c2cnn(C3CCNCC3)c2)cnc1N)c1c(Cl)ccc(F)c1Cl [Crizotinib, crizotinib]	< 50%	< 50%	< 50%	< 50%					
COC(=O)N[C@H](C(=O)N[C@@H](Cc1ccccc1)[C@@H](O)CN(Cc1ccc(-c2ccccn2)cc1)NC(=O)[C@@H](NC(=O)OC)C(C)(C)C)C(C)(C)C [Atazanavir, atazanavir]	< 50%	< 50%	< 50%	> 50%					
OC(Cn1cncn1)(Cn1cncn1)c1ccc(F)cc1F [Fluconazole, fluconazole]	< 50%	< 50%	< 50%	< 50%					
O=c1c(O)c(-c2ccc(O)c(O)c2)oc2cc(O)cc(O)c12 [Quercetin, quercetin]	< 50%	< 50%	< 50%	< 50%					
S=P(N1CC1)(N1CC1)N1CC1 [Thiotepa, thiotepa]			< 50%	< 50%				< 50%	< 50%
C=C[C@H]1C[N@@]2CC[C@H]1C[C@@H]2[C@@H](O)c1ccnc2ccc(OC)cc12 [Quinidine, quinidine]	< 50%	< 50%	< 50%	< 50%					
CC(=O)N1CCN(c2ccc(OCC3COC(Cn4ccnc4)(c4ccc(Cl)cc4Cl)O3)cc2)CC1 (centres unmarked) [Ketoconazole, ketoconazole]	< 50%	< 50%	< 50%	> 50%	> 10 µM	1 to 10 µM	1 to 10 µM		
Cc1c(O)cccc1C(=O)N[C@@H](CSc1ccccc1)[C@H](O)CN1C[C@H]2CCCC[C@H]2C[C@H]1C(=O)NC(C)(C)C [Nelfinavir, nelfinavir]	< 50%	< 50%	< 50%	> 50%					

Reference: US10481149B2
